ChEMBL document CHEMBL5108024, “New C-6 functionalized quinoline NorA inhibitors strongly synergize with ciprofloxacin against planktonic and biofilm growing resistant Staphylococcus aureus strains” (Eur J Med Chem, 2022)
In brackets after ≈: the same amount, converted by molar mass. Several values for one entry are separate records, joined by “and”; a condition that tells them apart may be missing. Equal values may be shown once.

System: Staphylococcus aureus
Assay: Synergistic antibacterial activity against Staphylococcus aureus 1199B overexpressing norA and harboring A116E grlA mutant assessed as eight fold minimum potentiating concentration incubated in presence of ciprofloxacin by checkerboard assay
Type: functional
Settings: not given

Question: For CCCOc1ccc(-c2cc(OCCN3CCCCCC3)c3cc(SC)ccc3n2)cc1, which MPC is on record?
Answer: 1.56 µg/mL

Question: With CCCOc1ccc(-c2cc(OCCN3CCCCC3)c3cc(OC)ccc3n2)cc1 as the molecule, how does the MPC read?
Answer: 1.56 µg/mL

Question: Which MPC does the source give for CCCOc1ccc(-c2cc(OCCN3CCCCC3)c3cc(SC)ccc3n2)cc1 here?
Answer: 6.25 µg/mL

Question: For CCCOc1ccc(-c2cc(OCCN3CCCCC3)c3cc(Oc4ccccc4)ccc3n2)cc1, which MPC is on record?
Answer: 1.56 µg/mL

System: Staphylococcus aureus
Assay: Synergistic antibiofilm activity against Staphylococcus aureus 1199B overexpressing norA and harboring A116E grlA mutant assessed as biofilm eradication by measuring ciprofloxacin MBEC at 3.13 ug/ml incubated for 24 hrs by Calgary biofilm device assay
Type: functional
Settings: dose 3.13 µg/ml

Question: Which MBEC does the source give for CCCOc1ccc(-c2cc(OCCN3CCCCCC3)c3cc(SC)ccc3n2)cc1 here?
Answer: 1.25 µg/mL

Question: Which MBEC does the source give for CCCOc1ccc(-c2cc(OCCN3CCCCC3)c3cc(OC)ccc3n2)cc1 here?
Answer: 2.5 µg/mL

Question: Which MBEC does the source give for CCCOc1ccc(-c2cc(OCCN3CCCCC3)c3cc(Oc4ccccc4)ccc3n2)cc1 here?
Answer: 1.25 µg/mL

System: Staphylococcus aureus
Assay: Antibacterial activity against ciprofloxacin-susceptible wild type Staphylococcus aureus 1199 assessed as inhibition of bacterial growth by broth microdilution method
Type: functional
Settings: not given

Question: For CCCOc1ccc(-c2cc(OCCN3CCCCCC3)c3cc(SC)ccc3n2)cc1, which MIC is on record?
Answer: > 50 µg/mL

Question: Which MIC does the source give for CCCOc1ccc(-c2cc(OCCN3CCCCC3)c3cc(SC)ccc3n2)cc1 here?
Answer: > 50 µg/mL

Question: For CCCOc1ccc(-c2cc(OCCN3CCCCC3)c3cc(Oc4ccccc4)ccc3n2)cc1, which MIC is on record?
Answer: > 50 µg/mL

System: Staphylococcus aureus
Assay: Synergistic antibacterial activity against ciprofloxacin-resistant Staphylococcus aureus 1199B overexpressing norA and harboring A116E grlA mutant assessed as fold reduction in ciprofloxacin MIC at 6.25 uM by broth microdilution method
Type: functional
Settings: not given

Question: With CCCOc1ccc(-c2cc(OCCN3CCCCCC3)c3cc(SC)ccc3n2)cc1 as the molecule, how does the “fold change (FC)” value read?
Answer: 8

Question: For CCCOc1ccc(-c2cc(OCCN3CCCCC3)c3cc(SC)ccc3n2)cc1, which “fold change (FC)” value is on record?
Answer: >=8

Question: Which “fold change (FC)” value does the source give for CCCOc1ccc(-c2cc(OCCN3CCCCC3)c3cc(Oc4ccccc4)ccc3n2)cc1 here?
Answer: 8

System: Staphylococcus aureus
Assay: Antibacterial activity against norA deleted Staphylococcus aureus K1902 assessed as inhibition of bacterial growth by broth microdilution method
Type: functional
Settings: not given

Question: With CCCOc1ccc(-c2cc(OCCN3CCCCCC3)c3cc(SC)ccc3n2)cc1 as the molecule, how does the MIC read?
Answer: > 50 µg/mL

Question: For CCCOc1ccc(-c2cc(OCCN3CCCCC3)c3cc(Oc4ccccc4)ccc3n2)cc1, which MIC is on record?
Answer: > 50 µg/mL

System: not listed separately
Assay: Cytotoxicity against human THP-1 cells assessed as cell viability at 12.5 ug/ml incubated for 24 hrs by MTT assay relative to control
Type: toxicity, cell-based
Settings: at 12.5 µg/mL, read-out: Activity

Question: Which viability at 24 h, 12.5 ug/ml does the source give for CCCOc1ccc(-c2cc(OCCN3CCCCCC3)c3cc(SC)ccc3n2)cc1 here?
Answer: 19.9%

Question: With CCCOc1ccc(-c2cc(OCCN3CCCCC3)c3cc(Oc4ccccc4)ccc3n2)cc1 as the molecule, how does the viability at 24 h, 12.5 ug/ml read?
Answer: 21.8%

System: not listed separately
Assay: Cytotoxicity against human A549 cells assessed as cell viability at 12.5 ug/ml incubated for 24 hrs by MTT assay relative to control
Type: toxicity, cell-based
Settings: at 12.5 µg/mL, read-out: Activity

Question: Which viability at 24 h, 12.5 ug/ml does the source give for CCCOc1ccc(-c2cc(OCCN3CCCCCC3)c3cc(SC)ccc3n2)cc1 here?
Answer: 100%

Question: Which viability at 24 h, 12.5 ug/ml does the source give for CCCOc1ccc(-c2cc(OCCN3CCCCC3)c3cc(Oc4ccccc4)ccc3n2)cc1 here?
Answer: 100%

System: Staphylococcus aureus
Assay: Synergistic antibiofilm activity against wild type Staphylococcus aureus 1199 assessed as biofilm eradication by measuring ciprofloxacin MBEC at 3.13 ug/ml incubated for 24 hrs by Calgary biofilm device assay
Type: functional
Settings: dose 3.13 µg/ml

Question: For CCCOc1ccc(-c2cc(OCCN3CCCCCC3)c3cc(SC)ccc3n2)cc1, which MBEC is on record?
Answer: 0.07 µg/mL

Question: Which MBEC does the source give for CCCOc1ccc(-c2cc(OCCN3CCCCC3)c3cc(OC)ccc3n2)cc1 here?
Answer: 0.07 µg/mL

Question: With CCCOc1ccc(-c2cc(OCCN3CCCCC3)c3cc(Oc4ccccc4)ccc3n2)cc1 as the molecule, how does the MBEC read?
Answer: 0.07 µg/mL

System: Staphylococcus aureus
Assay: Synergistic antibacterial activity against Staphylococcus aureus K2378 overexpressing norA assessed as fold reduction in ciprofloxacin MIC at 0.2 to 12.5 ug/ml by checkerboard assay
Type: functional
Settings: dose 0.2-12.5 µg/ml

Question: Which “fold change (FC)” value does the source give for CCCOc1ccc(-c2cc(OCCN3CCCCCC3)c3cc(SC)ccc3n2)cc1 here?
Answer: 4

Question: With CCCOc1ccc(-c2cc(OCCN3CCCCC3)c3cc(Oc4ccccc4)ccc3n2)cc1 as the molecule, how does the “fold change (FC)” value read?
Answer: 4

System: not listed separately
Assay: Cytotoxicity against human A549 cells assessed as cell viability at 3.13 ug/ml incubated for 24 hrs by MTT assay relative to control
Type: toxicity, cell-based
Settings: at 3.13 µg/mL, read-out: Activity

Question: For CCCOc1ccc(-c2cc(OCCN3CCCCCC3)c3cc(SC)ccc3n2)cc1, which viability at 24 h, 3.13 ug/ml is on record?
Answer: 100%

Question: Which viability at 24 h, 3.13 ug/ml does the source give for CCCOc1ccc(-c2cc(OCCN3CCCCC3)c3cc(Oc4ccccc4)ccc3n2)cc1 here?
Answer: 100%

System: Staphylococcus aureus
Assay: Synergistic antibacterial activity against Staphylococcus aureus 1199B overexpressing norA and harboring A116E grlA mutant assessed as four fold minimum potentiating concentration incubated in presence of ciprofloxacin by checkerboard assay
Type: functional
Settings: not given

Question: For CCCOc1ccc(-c2cc(OCCN3CCCCC3)c3cc(OC)ccc3n2)cc1, which MPC is on record?
Answer: 0.78 µg/mL

System: Staphylococcus aureus
Assay: Antibacterial activity against Staphylococcus aureus K2378 harbouring norA promoting and coding region assessed as inhibition of bacterial growth by broth microdilution method
Type: functional
Settings: not given

Question: With CCCOc1ccc(-c2cc(OCCN3CCCCCC3)c3cc(SC)ccc3n2)cc1 as the molecule, how does the MIC read?
Answer: > 50 µg/mL

Question: For CCCOc1ccc(-c2cc(OCCN3CCCCC3)c3cc(Oc4ccccc4)ccc3n2)cc1, which MIC is on record?
Answer: > 50 µg/mL

System: not listed separately
Assay: Cytotoxicity against human THP-1 cells assessed as cell viability incubated for 24 hrs by MTT assay
Type: toxicity, cell-based
Settings: not given

Question: For CCCOc1ccc(-c2cc(OCCN3CCCCCC3)c3cc(SC)ccc3n2)cc1, which CC50 at 24 h is on record?
Answer: > 3.13 µg/mL

Question: With CCCOc1ccc(-c2cc(OCCN3CCCCC3)c3cc(Oc4ccccc4)ccc3n2)cc1 as the molecule, how does the CC50 at 24 h read?
Answer: > 3.13 µg/mL

System: Staphylococcus aureus
Assay: Antibacterial activity against ciprofloxacin-resistant Staphylococcus aureus 1199B overexpressing norA and harboring A116E grlA mutant assessed as inhibition of bacterial growth by broth microdilution method
Type: functional
Settings: not given

Question: Which MIC does the source give for CCCOc1ccc(-c2cc(OCCN3CCCCCC3)c3cc(SC)ccc3n2)cc1 here?
Answer: > 50 µg/mL and 69.5 µM

Question: With CCCOc1ccc(-c2cc(OCCN3CCCCC3)c3cc(OC)ccc3n2)cc1 as the molecule, how does the MIC read?
Answer: 238 µM (≈ 100 µg/mL)

Question: With CCCOc1ccc(-c2cc(OCCN3CCCCC3)c3cc(SC)ccc3n2)cc1 as the molecule, how does the MIC read?
Answer: > 50 µg/mL and 71.7 µM

Question: Which MIC does the source give for CCCOc1ccc(-c2cc(OCCN3CCCCC3)c3cc(Oc4ccccc4)ccc3n2)cc1 here?
Answer: > 50 µg/mL and > 518 µM

System: Staphylococcus aureus
Assay: Synergistic antibacterial activity against Staphylococcus aureus 1199B overexpressing norA and harboring A116E grlA mutant assessed as fold reduction in ciprofloxacin MIC at 0.2 to 0.39 ug/ml by checkerboard assay
Type: functional
Settings: dose 0.2-0.39 µg/ml

Question: Which “fold change (FC)” value does the source give for CCCOc1ccc(-c2cc(OCCN3CCCCC3)c3cc(OC)ccc3n2)cc1 here?
Answer: 2

System: Staphylococcus aureus
Assay: Inhibition of EtBr efflux in ciprofloxacin-resistant Staphylococcus aureus 1199B overexpressing norA and harboring A116E grlA mutant assessed as reduction in fluorescence intensity at 50 uM measured for 5 mins by microplate reader analysis relative to control
Type: functional
Settings: not given

Question: Which inhibition does the source give for CCCOc1ccc(-c2cc(OCCN3CCCCCC3)c3cc(SC)ccc3n2)cc1 here?
Answer: 81.2%

Question: Which inhibition does the source give for CCCOc1ccc(-c2cc(OCCN3CCCCC3)c3cc(OC)ccc3n2)cc1 here?
Answer: 97.6%

Question: Which inhibition does the source give for CCCOc1ccc(-c2cc(OCCN3CCCCC3)c3cc(SC)ccc3n2)cc1 here?
Answer: 79.9%

Question: For CCCOc1ccc(-c2cc(OCCN3CCCCC3)c3cc(Oc4ccccc4)ccc3n2)cc1, which inhibition is on record?
Answer: 84.1%

System: Staphylococcus aureus
Assay: Synergistic antibiofilm activity against wild type Staphylococcus aureus 1199 assessed as biofilm eradication by measuring fold reduction in ciprofloxacin MBEC at 3.13 ug/ml incubated for 24 hrs by Calgary biofilm device assay
Type: functional
Settings: dose 3.13 µg/ml

Question: For CCCOc1ccc(-c2cc(OCCN3CCCCCC3)c3cc(SC)ccc3n2)cc1, which “fold change (FC)” value is on record?
Answer: 286

Question: Which “fold change (FC)” value does the source give for CCCOc1ccc(-c2cc(OCCN3CCCCC3)c3cc(OC)ccc3n2)cc1 here?
Answer: 286

Question: Which “fold change (FC)” value does the source give for CCCOc1ccc(-c2cc(OCCN3CCCCC3)c3cc(Oc4ccccc4)ccc3n2)cc1 here?
Answer: 286

System: Staphylococcus aureus
Assay: Inhibition of EtBr efflux in ciprofloxacin-resistant Staphylococcus aureus 1199B overexpressing norA and harboring A116E grlA mutant assessed as reduction in fluorescence intensity at 10 uM measured for 5 mins by microplate reader analysis relative to control
Type: functional
Settings: not given

Question: With CCCOc1ccc(-c2cc(OCCN3CCCCCC3)c3cc(SC)ccc3n2)cc1 as the molecule, how does the inhibition read?
Answer: 81.1%

Question: For CCCOc1ccc(-c2cc(OCCN3CCCCC3)c3cc(SC)ccc3n2)cc1, which inhibition is on record?
Answer: 80.2%

Question: With CCCOc1ccc(-c2cc(OCCN3CCCCC3)c3cc(Oc4ccccc4)ccc3n2)cc1 as the molecule, how does the inhibition read?
Answer: 65.6%

System: not listed separately
Assay: Cytotoxicity against human THP-1 cells assessed as cell viability at 3.13 ug/ml incubated for 24 hrs by MTT assay relative to control
Type: toxicity, cell-based
Settings: at 3.13 µg/mL, read-out: Activity

Question: With CCCOc1ccc(-c2cc(OCCN3CCCCCC3)c3cc(SC)ccc3n2)cc1 as the molecule, how does the viability at 24 h, 3.13 ug/ml read?
Answer: 68.8%

Question: Which viability at 24 h, 3.13 ug/ml does the source give for CCCOc1ccc(-c2cc(OCCN3CCCCC3)c3cc(Oc4ccccc4)ccc3n2)cc1 here?
Answer: 87.9%

System: Staphylococcus aureus
Assay: Synergistic antibiofilm activity against Staphylococcus aureus 1199B overexpressing norA and harboring A116E grlA mutant assessed as biofilm eradication by measuring fold reduction in ciprofloxacin MBEC at 3.13 ug/ml incubated for 24 hrs by Calgary biofilm device assay
Type: functional
Settings: dose 3.13 µg/ml

Question: For CCCOc1ccc(-c2cc(OCCN3CCCCCC3)c3cc(SC)ccc3n2)cc1, which “fold change (FC)” value is on record?
Answer: 512

Question: With CCCOc1ccc(-c2cc(OCCN3CCCCC3)c3cc(Oc4ccccc4)ccc3n2)cc1 as the molecule, how does the “fold change (FC)” value read?
Answer: 512
